Test: Gravimetric vapor sorption (GVS) study
Type: physicochemical
Settings: 25° C. and 90 percent humidity
Description: A gravimetric vapor sorption (GVS) study was run using a standard procedure. Samples were run on a dynamic vapor sorption analyzer (Surface Measurement Systems) running DVSCFR software. Sample sizes were typically 10 mg. A moisture adsorption desorption isotherm was performed as outlined below. The standard isotherm experiment, performed at 25° C., is a two-cycle run, starting at 40 percent RH, increasing humidity to 90 percent RH, decreasing humidity to 0 percent RH, increasing humidity again to 90 percent RH, and finally decreasing humidity to 0 percent RH in 10 percent RH intervals.

weight gain (GVS moisture sorption): 2.5%
SMILES: COc1cc2c(Oc3ccc(NC(=O)C4(C(=O)Nc5ccc(F)cc5)CC4)cc3F)ccnc2cc1OCCCN1CCOCC1 [crystalline Compound (I), N-[3-fluoro-4-({6-(methyloxy)-7-[(3-morpholin-4-ylpropyl)oxy]quinolin-4-yl}oxy)phenyl]-N′-(4-fluorophenyl)cyclopropane-1,1-dicarboxamide crystalline hydrate]

From US20130143881A1, “Hydrated Crystalline Forms of N-[3-fluoro-4-(oxy)phenyl]-N'-(4-fluorophenyl)cyclopropane-1,1-dicarboxamide” (Exelixis, Inc., priority 2010, published 2013)
